From article PMC10837422, “Early onset diagnosis in Alzheimer’s disease patients via amyloid-β oligomers-sensing probe in cerebrospinal fluid” (Nature Communications, 2024)

Legend:
[1] = molecular target: T1, Amyloid-β 1–42 (Aβ1–42) oligomers (Homo sapiens, UniProt P05067); assay: fluorescence saturation titration; hexamer fragment mapping assay; assay type: binding
T1 construct: gene APP; full-length Aβ1–42 synthetic peptide, oligomers

[2] = molecular target: T2, Amyloid-β 1–42 (Aβ1–42) fibrils (Homo sapiens, UniProt P05067); assay: ThT fluorescence turn-on during Aβ[…] self-assembly (reference dye); assay type: binding
T2 construct: gene APP
T2 sequence (P05067 672-713): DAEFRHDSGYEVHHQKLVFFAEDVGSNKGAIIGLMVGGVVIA

T1 sequence (P05067 672-713): as above

Row | SMILES | Kd [1] | ThT fluorescence turn-on during Aβ1-42 self-assembly (reference dye) [2]
1 | CC(C)CC1=[O+][B-](F)(F)OC(/C=C/c2ccc3nc(N(C)C)ccc3c2)=C1 [Q-OB] | 303 ± 94.7 nM | 
2 | Cc1ccc2c(c1)sc(-c1ccc(N(C)C)cc1)[n+]2C [ThT, thioflavin T] |  | matured Aβ aggregates formation, since ThT specifically detects cross-β-sheet via hydrophobic binding
